Assays:
PIK3CG (human) = PIK3CG (human) (UniProt P48736); experiment: Assessment of PIK3CG Kinase Activity
PIK3CD (Human) = PIK3CD (Human) (UniProt O00329); experiment: Assessment of PIK3CD Kinase Activity
PIK3CB (Human) = PIK3CB (Human) (UniProt P42338); experiment: Assessment of PIK3CB Kinase Activity
PIK3CA (human) = PIK3CA (human) (UniProt P42336); experiment: Assessment of PIK3CA Kinase Activity
Sequence of PIK3CA (human) (P42336 whole entry, looked up): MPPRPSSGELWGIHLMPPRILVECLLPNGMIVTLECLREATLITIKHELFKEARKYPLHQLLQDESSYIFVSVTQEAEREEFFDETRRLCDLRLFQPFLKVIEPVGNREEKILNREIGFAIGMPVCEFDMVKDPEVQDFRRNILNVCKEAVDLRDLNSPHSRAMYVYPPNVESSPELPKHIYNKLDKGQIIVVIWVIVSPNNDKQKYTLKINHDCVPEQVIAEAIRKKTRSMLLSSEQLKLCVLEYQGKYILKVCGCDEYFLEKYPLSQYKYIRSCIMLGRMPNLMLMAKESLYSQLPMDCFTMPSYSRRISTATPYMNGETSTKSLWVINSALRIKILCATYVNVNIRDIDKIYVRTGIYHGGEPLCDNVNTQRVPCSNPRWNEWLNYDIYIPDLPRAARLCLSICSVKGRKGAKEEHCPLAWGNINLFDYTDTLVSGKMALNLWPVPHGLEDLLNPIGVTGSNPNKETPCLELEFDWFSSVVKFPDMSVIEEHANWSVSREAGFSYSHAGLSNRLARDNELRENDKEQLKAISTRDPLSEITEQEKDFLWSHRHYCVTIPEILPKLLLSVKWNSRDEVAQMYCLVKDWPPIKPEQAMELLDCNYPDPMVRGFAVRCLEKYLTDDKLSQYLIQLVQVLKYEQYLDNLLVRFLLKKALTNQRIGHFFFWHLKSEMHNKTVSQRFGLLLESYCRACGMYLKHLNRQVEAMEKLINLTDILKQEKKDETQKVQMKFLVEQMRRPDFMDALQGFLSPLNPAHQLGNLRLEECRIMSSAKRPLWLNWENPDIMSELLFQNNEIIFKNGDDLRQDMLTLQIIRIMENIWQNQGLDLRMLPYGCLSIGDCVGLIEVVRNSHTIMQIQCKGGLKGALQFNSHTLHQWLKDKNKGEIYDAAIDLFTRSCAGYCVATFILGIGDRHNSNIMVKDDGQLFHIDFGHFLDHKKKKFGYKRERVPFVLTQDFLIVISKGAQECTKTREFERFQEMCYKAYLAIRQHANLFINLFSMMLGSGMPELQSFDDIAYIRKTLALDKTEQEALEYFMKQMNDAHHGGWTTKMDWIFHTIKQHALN

Sequence of PIK3CB (Human) (P42338 whole entry, looked up): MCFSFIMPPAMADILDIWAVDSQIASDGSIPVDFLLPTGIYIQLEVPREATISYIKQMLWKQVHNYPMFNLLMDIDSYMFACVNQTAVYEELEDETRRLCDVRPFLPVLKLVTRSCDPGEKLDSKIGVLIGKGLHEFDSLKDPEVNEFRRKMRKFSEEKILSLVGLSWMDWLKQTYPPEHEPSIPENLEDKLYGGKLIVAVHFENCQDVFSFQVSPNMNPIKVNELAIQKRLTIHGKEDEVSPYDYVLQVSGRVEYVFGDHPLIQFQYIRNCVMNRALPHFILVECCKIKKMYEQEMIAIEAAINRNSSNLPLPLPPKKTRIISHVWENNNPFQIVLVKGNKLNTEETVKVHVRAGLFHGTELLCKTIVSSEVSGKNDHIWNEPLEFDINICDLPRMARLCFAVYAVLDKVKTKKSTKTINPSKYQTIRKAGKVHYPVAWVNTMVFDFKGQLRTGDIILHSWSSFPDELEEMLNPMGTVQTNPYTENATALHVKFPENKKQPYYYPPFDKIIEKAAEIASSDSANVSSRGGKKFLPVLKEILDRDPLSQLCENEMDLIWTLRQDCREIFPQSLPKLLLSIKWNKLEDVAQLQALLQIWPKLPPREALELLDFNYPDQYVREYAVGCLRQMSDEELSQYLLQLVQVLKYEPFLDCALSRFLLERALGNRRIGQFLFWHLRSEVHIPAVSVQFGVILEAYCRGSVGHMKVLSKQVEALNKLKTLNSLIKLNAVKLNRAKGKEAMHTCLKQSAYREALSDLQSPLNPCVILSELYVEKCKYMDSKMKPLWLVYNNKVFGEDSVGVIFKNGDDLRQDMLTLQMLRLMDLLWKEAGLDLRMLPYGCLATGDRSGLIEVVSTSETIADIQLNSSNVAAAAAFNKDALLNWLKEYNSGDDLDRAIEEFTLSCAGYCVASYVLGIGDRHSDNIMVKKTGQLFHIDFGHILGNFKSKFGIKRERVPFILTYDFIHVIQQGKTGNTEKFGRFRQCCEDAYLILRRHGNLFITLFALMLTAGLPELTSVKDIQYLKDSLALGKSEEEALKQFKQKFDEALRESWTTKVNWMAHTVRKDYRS
Sequence of PIK3CG (human) (P48736 whole entry, looked up): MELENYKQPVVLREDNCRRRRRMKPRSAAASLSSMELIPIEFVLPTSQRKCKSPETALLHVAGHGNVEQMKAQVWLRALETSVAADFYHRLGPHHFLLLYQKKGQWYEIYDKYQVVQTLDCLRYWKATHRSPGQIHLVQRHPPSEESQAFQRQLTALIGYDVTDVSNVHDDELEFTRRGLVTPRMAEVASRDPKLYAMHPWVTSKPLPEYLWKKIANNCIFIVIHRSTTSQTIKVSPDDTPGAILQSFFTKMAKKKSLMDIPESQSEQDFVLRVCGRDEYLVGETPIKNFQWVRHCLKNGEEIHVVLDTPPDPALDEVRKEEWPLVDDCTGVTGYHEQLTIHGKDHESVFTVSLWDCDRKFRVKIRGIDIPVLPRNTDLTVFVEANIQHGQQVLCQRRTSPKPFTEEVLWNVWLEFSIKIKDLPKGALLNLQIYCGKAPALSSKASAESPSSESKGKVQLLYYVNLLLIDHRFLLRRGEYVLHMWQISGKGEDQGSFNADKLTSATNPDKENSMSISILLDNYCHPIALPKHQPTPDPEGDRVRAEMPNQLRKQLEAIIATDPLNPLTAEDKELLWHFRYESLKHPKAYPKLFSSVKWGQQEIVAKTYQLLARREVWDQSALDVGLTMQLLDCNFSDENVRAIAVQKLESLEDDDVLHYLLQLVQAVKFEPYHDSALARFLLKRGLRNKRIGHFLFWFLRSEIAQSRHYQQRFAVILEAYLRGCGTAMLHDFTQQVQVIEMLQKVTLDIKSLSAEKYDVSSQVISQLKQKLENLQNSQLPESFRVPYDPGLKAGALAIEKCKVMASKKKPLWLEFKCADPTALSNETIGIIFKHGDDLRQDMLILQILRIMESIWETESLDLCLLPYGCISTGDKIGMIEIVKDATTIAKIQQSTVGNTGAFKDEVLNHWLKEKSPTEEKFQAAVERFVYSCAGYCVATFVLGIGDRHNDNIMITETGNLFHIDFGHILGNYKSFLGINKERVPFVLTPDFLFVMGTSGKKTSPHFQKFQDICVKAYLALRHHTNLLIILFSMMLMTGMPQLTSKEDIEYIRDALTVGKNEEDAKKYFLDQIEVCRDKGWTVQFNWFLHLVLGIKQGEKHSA
Sequence of PIK3CD (Human) (O00329 whole entry, looked up): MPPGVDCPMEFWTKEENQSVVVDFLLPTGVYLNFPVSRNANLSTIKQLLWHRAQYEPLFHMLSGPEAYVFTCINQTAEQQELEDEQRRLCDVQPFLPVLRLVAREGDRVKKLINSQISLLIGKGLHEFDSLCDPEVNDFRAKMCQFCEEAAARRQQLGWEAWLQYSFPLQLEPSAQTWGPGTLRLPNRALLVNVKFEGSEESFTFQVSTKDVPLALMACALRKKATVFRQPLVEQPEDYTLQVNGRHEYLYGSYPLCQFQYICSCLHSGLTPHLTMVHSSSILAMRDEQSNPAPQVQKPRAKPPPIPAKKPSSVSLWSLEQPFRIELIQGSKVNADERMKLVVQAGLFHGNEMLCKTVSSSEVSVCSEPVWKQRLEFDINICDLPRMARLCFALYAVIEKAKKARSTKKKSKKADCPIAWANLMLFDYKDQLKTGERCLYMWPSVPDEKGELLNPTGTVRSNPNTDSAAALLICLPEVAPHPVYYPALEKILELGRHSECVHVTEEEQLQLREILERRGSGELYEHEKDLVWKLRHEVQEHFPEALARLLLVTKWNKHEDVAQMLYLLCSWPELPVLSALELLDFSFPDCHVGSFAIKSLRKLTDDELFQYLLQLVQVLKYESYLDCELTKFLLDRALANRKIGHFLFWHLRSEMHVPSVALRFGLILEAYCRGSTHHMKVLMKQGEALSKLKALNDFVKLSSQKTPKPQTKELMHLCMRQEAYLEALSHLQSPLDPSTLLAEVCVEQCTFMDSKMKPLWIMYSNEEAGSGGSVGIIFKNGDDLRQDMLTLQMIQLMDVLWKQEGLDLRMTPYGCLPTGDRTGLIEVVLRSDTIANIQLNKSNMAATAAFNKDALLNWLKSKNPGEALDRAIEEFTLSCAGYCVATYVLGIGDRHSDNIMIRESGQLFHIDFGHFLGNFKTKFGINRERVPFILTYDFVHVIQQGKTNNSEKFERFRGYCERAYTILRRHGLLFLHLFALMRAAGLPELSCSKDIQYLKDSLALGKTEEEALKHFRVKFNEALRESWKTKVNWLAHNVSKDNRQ

Compound	IC50 (PIK3CG (human))	IC50 (PIK3CD (Human))	IC50 (PIK3CB (Human))	IC50 (PIK3CA (human))
CC(C)(C)NS(=O)(=O)c1cncc(-c2cc(F)c3nc(NC(=O)NCC(=O)N4CCOCC4)nn3c2)c1	< 100 nM	< 100 nM		
CC(C)(C)NS(=O)(=O)c1cncc(-c2ccc3nc(NC(=O)NCC(=O)N4CCC(N)CC4)nn3c2)c1	< 100 nM	< 100 nM	100 to 1000 nM	
CC(C)(C)NS(=O)(=O)c1cncc(-c2ccc3nc(NC(=O)NCC(=O)NC4CC4)nn3c2)c1	< 100 nM	100 to 1000 nM	100 to 1000 nM	
CS(=O)(=O)c1cncc(-c2ccc3nc(NC(=O)NCC(=O)N4CCOCC4)nn3c2)c1	< 100 nM	100 to 1000 nM		
CC(C)(C)NS(=O)(=O)c1cncc(-c2ccc3nc(NC(=O)NCC(=O)NC4CCNCC4)nn3c2)c1	< 100 nM	100 to 1000 nM	100 to 1000 nM	
CC(C)(C)NS(=O)(=O)c1cncc(-c2cc(F)c3nc(NC(=O)NCC(=O)N4CCCC4)nn3c2)c1	< 100 nM	100 to 1000 nM		
COCCN1CCN(C(=O)CNC(=O)Nc2nc3ccc(-c4cncc(S(=O)(=O)NC(C)(C)C)c4)cn3n2)CC1	< 100 nM	< 100 nM	100 to 1000 nM	100 to 1000 nM

Continued, values first:

IC50 (PIK3CG (human))	IC50 (PIK3CD (Human))	IC50 (PIK3CB (Human))	IC50 (PIK3CA (human))	Compound
< 100 nM	< 100 nM			CC(C)NS(=O)(=O)c1cncc(-c2ccc3nc(NC(=O)NCC(=O)N4CCCC4)nn3c2)c1
< 100 nM	< 100 nM	100 to 1000 nM	100 to 1000 nM	CN(C)[C@H]1CCN(C(=O)CNC(=O)Nc2nc3ccc(-c4cncc(S(=O)(=O)NC(C)(C)C)c4)cn3n2)C1
< 100 nM	< 100 nM		100 to 1000 nM	CC(C)(C)NS(=O)(=O)c1cncc(-c2ccc3nc(NC(=O)NCC(=O)N4CCCCC4)nn3c2)c1
< 100 nM	< 100 nM	100 to 1000 nM	100 to 1000 nM	CN1CCN(C(=O)CNC(=O)Nc2nc3ccc(-c4cncc(S(=O)(=O)NC(C)(C)C)c4)cn3n2)CC1
< 100 nM	< 100 nM	100 to 1000 nM		CC(C)(C)NS(=O)(=O)c1cncc(-c2ccc3nc(NC(=O)NCCC(=O)N4CCCC4)nn3c2)c1
< 100 nM		> 10000 nM		O=C(NCC(=O)N1CCCC1)Nc1nc2ccc(-c3cncc(C(F)(F)F)c3)cn2n1
< 100 nM	< 100 nM		100 to 1000 nM	CN(C(=O)CNC(=O)Nc1nc2ccc(-c3cncc(S(=O)(=O)NC(C)(C)C)c3)cn2n1)C1CC1
< 100 nM	< 100 nM		100 to 1000 nM	CC(C)NS(=O)(=O)c1cncc(-c2ccc3nc(NC(=O)NCC(=O)N4CCOCC4)nn3c2)c1
< 100 nM	< 100 nM			CC(C)(C)NS(=O)(=O)c1cncc(-c2ccc3nc(NC(=O)NCCC(=O)N4CCCCC4)nn3c2)c1
< 100 nM	< 100 nM			CC(C)(C)NS(=O)(=O)c1cncc(-c2ccc3nc(NC(=O)NCC(=O)N4CCCC4)nn3c2)c1
< 100 nM	< 100 nM	100 to 1000 nM	100 to 1000 nM	CC(C)(C)NS(=O)(=O)c1cncc(-c2ccc3nc(NC(=O)NCC(=O)N4CCOCC4)nn3c2)c1

From the Kinase Knowledgebase extract (Sharma et al. 2016)
